According to article PMC12145052 (Acta Pharmaceutica Sinica. B, 2025):
≈ marks a conversion by molar mass, not a printed value. Where a SMILES comes first, the peptide text is derived from it. [ ]: non-standard residue; d: D form. Phe(ol) = N[C@H](CO)Cc1ccccc1; Aib = CC(C)(N)C(=O)O

Assays:
MRSA 1530 (cfr) = assay: Antibacterial test, broth microdilution; format: cell-based, methicillin-resistant Staphylococcus aureus; conditions: Staphylococcus aureus
S. simulans 4 = assay: Antibacterial test, broth microdilution; format: cell-based; conditions: Staphylococcus simulans
MRSA T144 [1] = assay: Antibacterial test, broth microdilution; format: cell-based, methicillin-resistant Staphylococcus aureus; conditions: Staphylococcus aureus
MRSA T144 [2] = assay: Galleria mellonella infection model; format: in vivo; conditions: MRSA T144 5.0 × 10^6 CFUs; 10 mg/kg at 1 h post-infection; n = 7
S. aureus ATCC 29213 = assay: Antibacterial test, broth microdilution; format: cell-based, Staphylococcus aureus; conditions: Fig. S5
[3] = read-out: KD with PG; cited from earlier work

`CN[C@H](CC(C)C)C(=O)N[C@H]1C(=O)N[C@@H](CC(N)=O)C(=O)N[C@H]2C(=O)N[C@H]3C(=O)N[C@H](C(=O)N[C@H](C(=O)O)c4cc(O)cc(O)c4-c4cc3ccc4O)[C@H](O)c3ccc(c(Cl)c3)Oc3cc2cc(c3O[C@@H]2O[C@H](CO)[C@@H](O)[C@H](O)[C@H]2O[C@H]2C[C@](C)(N)[C@H](O)[C@H](C)O2)Oc2ccc(cc2Cl)[C@H]1O` [Vancomycin] showed an MIC (MRSA 1530 (cfr)) of 1 µg/mL (≈ 0.69 µM), an MIC (S. simulans 4) of 1 µg/mL (≈ 0.69 µM) and an MIC (MRSA T144 [1]) of 1 µg/mL (≈ 0.69 µM). The “Bacterial loads in G. mellonella larvae” value (MRSA T144 [2]) was “decreased bacterial loads”.
`CC(=O)NC(C)(C)C(=O)N1CCC[C@H]1C(=O)NC(C)(C)C(=O)N[C@@H](C)C(=O)NC(C)(C)C(=O)N[C@@H](C)C(=O)N[C@@H](CCC(N)=O)C(=O)NC(C)(C)C(=O)N[C@H](C(=O)NC(C)(C)C(=O)NCC(=O)N[C@@H](CC(C)C)C(=O)NC(C)(C)C(=O)N1CCC[C@H]1C(=O)N[C@H](C(=O)NC(C)(C)C(=O)NC(C)(C)C(=O)N[C@@H](CCC(=O)O)C(=O)N[C@@H](CCC(N)=O)C(=O)N[C@H](CO)Cc1ccccc1)C(C)C)C(C)C` [alamethicin] (Ac-[Aib]P[Aib]A[Aib]AQ[Aib]V[Aib]GL[Aib]PV[Aib][Aib]EQ[Phe(ol)]; N-terminus assumed) gave an MIC (S. aureus ATCC 29213) of 16 µg/mL (≈ 8.15 µM).
For daptomycin, the Kd [3] is given as 3.1 µM.
